Square brackets hold non-standard residues; d marks the D form. Peptide text beside a SMILES is read from it. * marks the point of attachment. ξ: configuration not given here. MeBmt = C/C=C/C[C@@H](C)[C@@H](O)[C@H](NC)C(=O)O; NMeIle(3ξ) = CCC(C)[C@H](NC)C(=O)O; NMeThr(3ξ) = CN[C@H](C(=O)O)C(C)O; NMePhg = CN[C@H](C(=O)O)c1ccccc1; NMeT = CN[C@H](C(=O)O)[C@@H](C)O; NMeL = CN[C@@H](CC(C)C)C(=O)O; dNMeAbu = CC[C@@H](NC)C(=O)O; NMeV = CN[C@H](C(=O)O)C(C)C; dNMeS = CN[C@H](CO)C(=O)O; dNMeA = CN[C@H](C)C(=O)O; Sar = CNCC(=O)O; tBu = CC(C)(C)*

For one assay, the target named is HCV replicon. In kind it is cell-based, hepatitis C virus. To be noted: HCV replicon cells, luciferase activity two days after addition of compound, 50% of control (DMSO only). The procedure: It is thought that the replication mechanism of the subgenomic HCV RNA in these cell lines is extremely similar to the replication of full length HCV RNA genome in hepatic cells infected with HCV.
The inhibitory activity of the test compounds against the replication of HCV replicon was evaluated by quantified the activity of luciferase, a reporter gene product encoded in the replicon system reported by Yokota et al., EMBO 4: 602-608 (2003). The enzyme assay was carried out according to the technical manual of the Steady-Glo® luciferase assay system (Promega). The replicon assay was carried out with the modified method reported by Lohmann et al., Science 285: 110 (1999). The details are described in the following.
6×10^3 HCV replicon cells in D-MEM medium containing 5% fetal bovine serum were seeded in each well of a 96-well microtiter plate (Corning Inc.). After the cells were incubated at 37° C. for 16 hours in 5% CO2, the test compound was added.
After cultivation for two more days, the culture medium was removed and 25 μl of Glo Lysis buffer was added to each well and incubated for 5 minutes. Allowing lysis to occur, 25 μl of Steady-Glo® assay reagent was added to each well. After incubation for 5 minutes, the luminescence was measured with a luminometer, Mithras LB940 (BERTHOLD TECHNOLOGIES GmbH & Co.KG) following the manufacturer's instructions.
The luciferase activities in replicon cells treated at each concentrations of the compound were employed for the calculation of EC50 value of the each compound, which gave the compound concentration indicating 50% enzyme activity level to the control (no drug group, containing only DMSO).
As to `C/C=C/C[C@@H](C)[C@@H](O)[C@H]1C(=O)N[C@@H]([C@@H](C)O)C(=O)N(C)[C@H](CC)C(=O)N(C)[C@@H]([C@@H](C)OC)C(=O)N[C@@H](CC(C)C)C(=O)N(C)[C@@H](CC(C)C)C(=O)N[C@@H](C)C(=O)N[C@H](C)C(=O)N(C)[C@@H](CC(C)C)C(=O)N[C@@H](CC(C)C)C(=O)N(C)[C@@H](C(C)C)C(=O)N1C` [Example 16] (cyclo(A[dA][NMeL]L[NMeV][MeBmt]T[dNMeAbu][NMeT](Me)L[NMeL])), the “HCV replicon replication inhibitory activity: EC50” value was less than 0.5 µg/mL. As for `C/C=C/C[C@@H](C)[C@@H](O)[C@H]1C(=O)N[C@@H]([C@@H](C)O)C(=O)N(C)[C@H](C)C(=O)N(C)[C@@H]([C@@H](C)OC)C(=O)N[C@@H](CC(C)C)C(=O)N(C)[C@@H](CC(C)C)C(=O)N[C@@H](C)C(=O)N[C@H](C)C(=O)N(C)[C@@H](CC(C)C)C(=O)N[C@@H](CC(C)C)C(=O)N(C)[C@@H](C(C)C)C(=O)N1C` [Example 32] (cyclo(A[dA][NMeL]L[NMeV][MeBmt]T[dNMeA][NMeT](Me)L[NMeL])), the “HCV replicon replication inhibitory activity: EC50” value is less than 0.5 µg/mL. As for `C/C=C/C[C@@H](C)[C@@H](O)[C@H]1C(=O)N[C@@H]([C@@H](C)O)C(=O)N(C)[C@H](C)C(=O)N(C)[C@@H](C(C)OC(C)(C)C)C(=O)N[C@@H](CC(C)C)C(=O)N(C)[C@@H](CC(C)C)C(=O)N[C@@H](C)C(=O)N[C@H](C)C(=O)N(C)[C@@H](CC(C)C)C(=O)N[C@@H](CC(C)C)C(=O)N(C)[C@@H](C(C)C)C(=O)N1C` (stereo partly drawn) [Example 25, (3R,6S,9S,12S,15S,18S,21R,24S,27S,30S,33S)-33-(1-tert-butoxyethyl)-6-[(1R)-1-hydroxyethyl]-9-[(1R,2R,4E)-1-hydroxy-2-methyl-4-hexen-1-yl]-15,18,27,30-tetraisobutyl-12-isopropyl-1,3,4,10,13,19,21,24,28-nonamethyl-1,4,7,10,13,16,19,22,25,28,31-undecaazacyclotritriacontane-2,5,8,11,14,17,20,23,26,29,32-undecone] (cyclo(A[dA][NMeL]L[NMeV][MeBmt]T[dNMeA][NMeThr(3ξ)](tBu)L[NMeL])), the “HCV replicon replication inhibitory activity: EC50” value is less than 0.5 µg/mL.

Consider `C/C=C/C[C@@H](C)[C@@H](O)[C@H]1C(=O)N[C@@H]([C@@H](C)O)C(=O)N(C)[C@H](C)C(=O)N(C)[C@@H](c2ccccc2)C(=O)N[C@@H](CC(C)C)C(=O)N(C)[C@@H](CC(C)C)C(=O)N[C@@H](C)C(=O)N[C@H](C)C(=O)N(C)[C@@H](CC(C)C)C(=O)N[C@@H](CC(C)C)C(=O)N(C)[C@@H](C(C)C)C(=O)N1C` [Example 15] (cyclo(A[dA][NMeL]L[NMeV][MeBmt]T[dNMeA][NMePhg]L[NMeL])), for which the “HCV replicon replication inhibitory activity: EC50” value is less than 0.5 µg/mL. Turning to `C/C=C/C[C@@H](C)[C@@H](O)[C@H]1C(=O)N[C@@H]([C@@H](C)O)C(=O)N(C)[C@H](COC)C(=O)N(C)[C@@H]([C@@H](C)OC)C(=O)N[C@@H](CC(C)C)C(=O)N(C)[C@@H](CC(C)C)C(=O)N[C@@H](C)C(=O)N[C@H](C)C(=O)N(C)[C@@H](CC(C)C)C(=O)N[C@@H](CC(C)C)C(=O)N(C)[C@@H](C(C)C)C(=O)N1C` [Example 9] (cyclo(A[dA][NMeL]L[NMeV][MeBmt]T[dNMeS](Me)[NMeT](Me)L[NMeL])), the “HCV replicon replication inhibitory activity: EC50” value is less than 0.5 µg/mL. Still for that read-out and setting: under `C/C=C/C[C@@H](C)[C@@H](O)[C@H]1C(=O)N[C@@H]([C@@H](C)O)C(=O)N(C)CC(=O)N(C)[C@@H](C(C)OC(C)(C)C)C(=O)N[C@@H](CC(C)C)C(=O)N(C)[C@@H](CC(C)C)C(=O)N[C@@H](C)C(=O)N[C@H](C)C(=O)N(C)[C@@H](CC(C)C)C(=O)N[C@@H](CC(C)C)C(=O)N(C)[C@@H](C(C)C)C(=O)N1C` (stereo partly drawn) [Example 52, (3S,6S,9S,12R,15S,18S,21S,24S,30S,33S)-24-(1-tert-butoxyethyl)-30-[(1R)-1-hydroxyethyl]-33-[(1R,2R,4E)-1-hydroxy-2-methyl-4-hexen-1-yl]-6,9,18,21-tetraisobutyl-3-isopropyl-1,4,10,12,15,19,25,28-octamethyl-1,4,7,10,13,16,19,22,25,28,31-undecaazacyclotritriacontane-2,5,8,11,14,17,20,23,26,29,32-undecone] (cyclo(A[dA][NMeL]L[NMeV][MeBmt]T[Sar][NMeThr(3ξ)](tBu)L[NMeL])) stands less than 0.5 µg/mL. Consider `C/C=C/C[C@@H](C)[C@@H](O)[C@H]1C(=O)N[C@@H]([C@@H](C)O)C(=O)N(C)[C@H](C)C(=O)N(C)[C@@H](C(C)O)C(=O)N[C@@H](CC(C)C)C(=O)N(C)[C@@H](CC(C)C)C(=O)N[C@@H](C)C(=O)N[C@H](C)C(=O)N(C)[C@@H](CC(C)C)C(=O)N[C@@H](CC(C)C)C(=O)N(C)[C@@H](C(C)C)C(=O)N1C` (stereo partly drawn) [Example 12, (3R,6S,9S,12S,15S,18S,21R,24S,27S,30S,33S)-6-[(1R)-1-hydroxyethyl]-33-(1-hydroxyethyl)-9-[(1R,2R,4E)-1-hydroxy-2-methyl-4-hexen-1-yl]-15,18,27,30-tetraisobutyl-12-isopropyl-1,3,4,10,13,19,21,24,28-nonamethyl-1,4,7,10,13,16,19,22,25,28,31-undecaazacyclotritriacontane-2,5,8,11,14,17,20,23,26,29,32-undecone] (cyclo(A[dA][NMeL]L[NMeV][MeBmt]T[dNMeA][NMeThr(3ξ)]L[NMeL])), for which the “HCV replicon replication inhibitory activity: EC50” value was less than 0.5 µg/mL. Turning to `C/C=C/C[C@@H](C)[C@@H](O)[C@H]1C(=O)N[C@@H]([C@@H](C)O)C(=O)N(C)[C@H](C)C(=O)N(C)[C@@H](C(C)CC)C(=O)N[C@@H](CC(C)C)C(=O)N(C)[C@@H](CC(C)C)C(=O)N[C@@H](C)C(=O)N[C@H](C)C(=O)N(C)[C@@H](CC(C)C)C(=O)N[C@@H](CC(C)C)C(=O)N(C)[C@@H](C(C)C)C(=O)N1C` (stereo partly drawn) [Example 14, (3R,6S,9S,12S,15S,18S,21R,24S,27S,30S,33S)-33-sec-butyl-6-[(1R)-1-hydroxyethyl]-9-[(1R,2R,4E)-1-hydroxy-2-methyl-4-hexen-1-yl]-15,18,27,30-tetraisobutyl-12-isopropyl-1,3,4,10,13,19,21,24,28-nonamethyl-1,4,7,10,13,16,19,22,25,28,31-undecaazacyclotritriacontane-2,5,8,11,14,17,20,23,26,29,32-undecone] (cyclo(A[dA][NMeL]L[NMeV][MeBmt]T[dNMeA][NMeIle(3ξ)]L[NMeL])), the “HCV replicon replication inhibitory activity: EC50” value is less than 0.5 µg/mL.

For a further assay, the system named is Human Immunodeficiency Virus Type 1 (HIV-1). To be noted: M. Thali et al., Nature 372, 363-365 (1994); cited from earlier work.
Turning to Cyclosporin A, the anti-HIV activity entry is “anti-HIV activity”.

The subject of another assay is HCV. Conditions: K. Inoue et al., 6th International Symposium on Hepatitis C and Related Virus (2000); cited from earlier work.
For the compound Cyclosporin A, the anti-HCV activity result is listed as “anti-HCV activity”.

Source of the values: patent US8252895B2, “Cyclic peptide compounds” (Astellas Pharma Inc., priority 2005, dated 2012).
